{
  "source": "patent US9074235B2",
  "about": "“Method for evaluating the improvement of skin elasticity using a mimetic dermis” (AMOREPACIFIC CORPORATION, priority 2010, dated 2015)",
  "key": {"[1]": {"system": "dermal mimics (glycated collagen with human neonatal fibroblasts)", "assay": "Evaluation of skin elasticity-improving effect using dermal mimics (three-dimensional images)", "format": "cell-based", "conditions": "observed about 10 minutes after separation from culture insert", "experimental": "(1) 40 μl of 10× P buffer (DMEM (Dulbecco's Modified Eagle Medium (DMEM powder, Gibco, USA)), a Ham's F-12 nutrient mixture (F-12 powder, Gibco, USA), 4 ml of an antibiotic-antifungal agent (PSF, Gibco, USA) in 400 ml of sterile distilled water, 40 μl of reconstitution buffer (obtained by dissolving 2.2 g of NaHCO3 and 4.77 g of HEPES in 100 ml of 0.05M NaOH, and filtering the solution) and 2 μl of 5 M NaOH were added to an Epi-tube and sufficiently mixed.\n(2) 320 μl of an aqueous solution of normal collagen or an aqueous solution of glycated collagen is added to and well mixed with the mixture of step (1) and using a pipette.\n(3) 10^4 human neonatal fibroblasts (HDFn, Cascade Biologics, USA) are added to and well mixed with the solution of step (2) using a pipette so that the fibroblasts are uniformly distributed in the solution.\n(4) A culture insert (12 mm, Transwell®, Corning, USA) is placed in a 12-well culture dish, and the mixture is placed in the culture insert and is allowed to react at 37° for 30 minutes so that the aqueous collagen solution is hardened.\n(5) After the collagen has been completely hardened, fibroblast culture medium (M106, Cascade Biologics, USA) is added to both the inside and outside of the culture insert and incubated overnight. Then, the dermal mimic is incubated for in about one week while the medium is replaced at 3-day intervals. In this process, dermal remodeling occurs due to the interaction between the fibroblasts and the collagen fibers.\nSpecifically, in this Example, the following collagens were prepared: non-glycated collagen (normal collagen); collagen glycated by treatment with 62.5 mM of ribose; collagen glycated by treatment with 62.5 mM of ribose together with 10 ppm of tocopherol; and collagen glycated by treatment with 62.5 mM of ribose together with 1 ppm of DPHP. Herein, the ribose used was obtained by dissolving D-ribose (Sigma, USA) in water and filtering the solution through a 0.2 μm filter (Minisart® sartorious stedim biotech, Germany). […]"}, "[2]": {"system": "collagen gel with fibroblasts", "assay": "Collagen gel contraction assay (two-dimensional)", "format": "cell-based, human", "conditions": "collagen glycated with ribose at 62.5, 125 and 250 mM", "experimental": "Specifically, the dermal mimics were prepared according to the method of Reference Example 1, and the glycated collagen solution used in step (2) of the preparation method of Reference Example 1 was obtained by treating collagen with ribose at concentrations of 0, 62.5, 125 and 250 mM to induce collagen glycation. In addition, the ribose used was obtained by dissolving D-ribose (Sigma, USA) in water and filtering the solution through a 0.2 μm filter (Minisart® sartorious stedim biotech, Germany).\nA specific method for glycation of collagen is as follows. D-ribose was added to a solution of collagen (obtained by dissolving type I collagen (Sigma, USA) in 0.1% acetic acid to a final concentration of 3 mg/ml) at specific concentrations (62.5, 125 and 250 mM) in a clean bench for preventing the contamination of collagen, and the mixture was placed in a rotation mixer rotatable at 360°, after which the mixture was allowed to react at room temperature for 3 days to induce glycation of the collagen.\nIn addition, for comparison, a collagen gel contraction assay which is a two-dimensional method was carried out by culturing a collagen gel, obtained by mixing fibroblasts with collagen glycated with the above-described concentrations of ribose, in a general culture dish, and obtaining a digital image of the cultured collagen gel."}},
  "data": [
    {"compound": "CCCCCCCCCCCCCCCC(=O)O[C@@H]1C[C@@H](C(=O)O)N(C(=O)CCCCCCCCCCCCCCC)C1", "note": "[DPHP]", "values": [
      {"measurement": "breakdown of the dermal mimics (shape/height on three-dimensional image)", "setting": "[1]; collagen glycated with 62.5 mM ribose together with 1 ppm DPHP", "result": "breakdown of the dermal mimics was inhibited"}
    ]},
    {"compound": "O=C[C@H](O)[C@H](O)[C@H](O)CO", "note": "[ribose, D-ribose]", "values": [
      {"measurement": "contraction of collagen gels (two-dimensional digital image)", "setting": "[2]", "result": "not contracted"},
      {"measurement": "shape of the dermal mimics (three-dimensional image)", "setting": "[1]; collagen glycated with 62.5 mM ribose alone", "result": "broken down"}
    ]},
    {"compound": "tocopherol", "values": [
      {"measurement": "breakdown of the dermal mimics (shape/height on three-dimensional image)", "setting": "[1]; collagen glycated with 62.5 mM ribose together with 10 ppm tocopherol", "result": "breakdown of the dermal mimics was inhibited"}
    ]}
  ]
}
